Assay results as given in patent US6479435B1, “Diaryl ethers and processes for their preparation and herbicidal and desiccant compositions containing them” (ISK Americas Incorporated, priority 1997, dated 2002).

Assays:
Assay type in all cases: in vivo
[1] = system: Johnsongrass (Sorghum halepense, SORHA); assay: Pre-emerge greenhouse herbicide test, phytotoxicity rating; conditions: 14 days after application, rating scale 0-100
Text: (§1) A standard greenhouse herbicide activity screening system was used to evaluate the herbicidal efficacy and crop safety of these test compounds. Six broadleaf weed species including redroot pigweed (Amaranthus retroflexus, AMARE), velvetleaf (Abutilon theophrasti, ABUTH), sicklepod (Cassia obtusifolia, CASOB), ivyleaf morningglory (Ipomoea hederacea, IPOHE), lambsquarters (Chenopodium album, CHEAL) and common ragweed (Ambrosia artemisiifolia L., AMBEL) were used as test species. Four grass weed species including green foxtail (Setaria viridis, SETVI), barnyardgrass (Echinochloa crusgalli, ECHCG), Johnsongrass (Sorghum halepense, SORHA), and large crabgrass (Digitaria sanguinalis, DIGSA) were also used. In addition, three crop species, field corn (Zea mays L., var. Dekalb 535, CORN), soybean (Glycine max L., var. Pella 86, SOY), and upland rice (Oryza sp., var.Tebonnet, RICE) were included.
(§2) All plants were grown in 10 cm square plastic pots which were filled with a sandy loam soil mix. For preemerge tests, seeds were planted one day prior to application of the test compounds. Immediately after application, test units of the pre-emerge applications were watered at the soil surface to incorporate the test materials. Subsequently, these test units were bottom-watered.
(§3) All test compounds were dissolved in acetone and applied to the test units in a volume of 187 l/ha. Test materials were applied at rates ranging from 125 g ai/ha to 1000 g ai/ha using a track sprayer equipped with a TJ8001E even flow flat fan spray nozzle. Plants were arranged on a shelf so that the top of the canopy (post-emerge) or top of the soil surface (pre-emerge) was 40-45 cm below the nozzle. Pressurized air was used to force the test solution through the nozzle as it was mechanically advanced (via electrically driven chain drive) over the top of all test plants/pots. This application simulates a typical commercial field herbicide application.
(§4) At 14 days after application of the test materials, phytotoxicity ratings were recorded. A rating scale of 0-100 was used as previously described in Research Methods in Weed Science, 2nd edition, B. Truelove, Ed., Southern Weed Science Society, Auburn University, Auburn, Ala., 1977. Briefly, “0” corresponds to no damage and “100” corresponds to complete death of all plants in the test unit. This scale was used both to determine efficacy against weed species and damage to crop species. Herbicide activity data for various compounds of this invention, which are shown by compound number in Tables 1-9, are shown in Tables 13 and 14.

[2] = system: barnyardgrass (Echinochloa crusgalli, ECHCG); assay: as above; conditions: 14 days after application, rating scale 0-100
Text: as §1, §2, §3, §4

[3] = system: green foxtail (Setaria viridis, SETVI); assay: as above; conditions: 14 days after application, rating scale 0-100
Text: as §1, §2, §3, §4

[4] = system: ivyleaf morningglory (Ipomoea hederacea, IPOHE); assay: as above; conditions: 14 days after application, rating scale 0-100
Text: as §1, §2, §3, §4

[5] = system: lambsquarters (Chenopodium album, CHEAL); assay: as above; conditions: 14 days after application, rating scale 0-100
Text: as §1, §2, §3, §4

[6] = system: large crabgrass (Digitaria sanguinalis, DIGSA); assay: as above; conditions: 14 days after application, rating scale 0-100
Text: as §1, §2, §3, §4

[7] = system: redroot pigweed (Amaranthus retroflexus, AMARE); assay: as above; conditions: 14 days after application, rating scale 0-100
Text: as §1, §2, §3, §4

[8] = system: sicklepod (Cassia obtusifolia, CASOB); assay: as above; conditions: 14 days after application, rating scale 0-100
Text: as §1, §2, §3, §4

[9] = system: velvetleaf (Abutilon theophrasti, ABUTH); assay: as above; conditions: 14 days after application, rating scale 0-100
Text: as §1, §2, §3, §4

[10] = system: field corn (Zea mays L., var. Dekalb 535, CORN); assay: Pre-emerge greenhouse test, crop damage rating; conditions: 14 days after application, rating scale 0-100
Text: as §1, §2, §3, §4

[11] = system: upland rice (Oryza sp., var.Tebonnet, RICE); assay: Pre-emerge greenhouse test, crop damage rating; conditions: 14 days after application, rating scale 0-100
Text: as §1, §2, §3, §4

[12] = system: soybean (Glycine max L., var. Pella 86, SOY); assay: Pre-emerge greenhouse test, crop damage rating; design: key to SOY crop damage rating: 0 = no damage, 100 = complete death of all plants; conditions: 14 days after application, rating scale 0-100
Text: as §1, §2, §3, §4

[13] = system: Johnsongrass (Sorghum halepense, SORHA); assay: Post-emerge greenhouse herbicide test, phytotoxicity rating; conditions: 14 days after application, scale 0-100
Text: as §1, §3
(§5) In the post-emerge test, a commercial non-ionic surfactant was also included (0.25% v/v) to enhance wetting of the leaf surfaces Qf target plants at rates ranging from 63 g ai/ha to 1000 g ai/ha. For post-emerge tests, seeds were planted 8-21 days prior to the test to allow emergence and good foliage development prior to application of the test substances. At the time of the post-emerge application, plants of all species were usually at the 2-3 leaf stage of development. Post-emerge test units were always bottom-watered.
as §4

[14] = system: barnyardgrass (Echinochloa crusgalli, ECHCG); assay: as above; conditions: 14 days after application, scale 0-100
Text: as §1, §3, §5, §4

[15] = system: green foxtail (Setaria viridis, SETVI); assay: as above; conditions: 14 days after application, scale 0-100
Text: as §1, §3, §5, §4

[16] = system: ivyleaf morningglory (Ipomoea hederacea, IPOHE); assay: as above; conditions: 14 days after application, scale 0-100
Text: as §1, §3, §5, §4

[17] = system: lambsquarters (Chenopodium album, CHEAL); assay: as above; conditions: 14 days after application, scale 0-100
Text: as §1, §3, §5, §4

[18] = system: large crabgrass (Digitaria sanguinalis, DIGSA); assay: as above; conditions: 14 days after application, scale 0-100
Text: as §1, §3, §5, §4

[19] = system: redroot pigweed (Amaranthus retroflexus, AMARE); assay: as above; conditions: 14 days after application, scale 0-100
Text: as §1, §3, §5, §4

[20] = system: sicklepod (Cassia obtusifolia, CASOB); assay: as above; conditions: 14 days after application, scale 0-100
Text: as §1, §3, §5, §4

[21] = system: velvetleaf (Abutilon theophrasti, ABUTH); assay: as above; conditions: 14 days after application, scale 0-100
Text: as §1, §3, §5, §4

[22] = system: field corn (Zea mays L., var. Dekalb 535, CORN); assay: Post-emerge greenhouse test, crop damage rating; conditions: 14 days after application, scale 0-100
Text: as §1, §3, §5, §4

[23] = system: upland rice (Oryza sp., var.Tebonnet, RICE); assay: Post-emerge greenhouse test, crop damage rating; conditions: 14 days after application, scale 0-100
Text: as §1, §3, §5, §4

[24] = system: soybean (Glycine max L., var. Pella 86, SOY); assay: Post-emerge greenhouse test, crop damage rating; design: key to crop damage rating SOY: 0-100 scale: 0 = no damage, 100 = complete death of all plants; conditions: 14 days after application, scale 0-100
Text: as §1, §3, §5, §4

Nn1c(C(F)(F)F)cc(=O)n(-c2cc(Oc3cccc(C(F)(F)F)c3)c(Cl)cc2F)c1=O [Compound 9-25, 1-Amino-3-[4-chloro-2-fluoro-5-(3-trifluoromethylphenoxy)phenyl]-6-trifluoro-methyl-1,2,3,4-tetrahydropyrimidine-2,4-dione]
SORHA phytotoxicity rating ([1]; Rate 125 g al/ha): 80
SORHA phytotoxicity rating ([1]; Rate 500 g al/ha): 100
ECHCG phytotoxicity rating ([2]; Rate 125 g al/ha): 70
ECHCG phytotoxicity rating ([2]; Rate 500 g al/ha): 95
SETVI phytotoxicity rating ([3]; Rate 125 g al/ha): 100
SETVI phytotoxicity rating ([3]; Rate 500 g al/ha): 100
IPOHE phytotoxicity rating ([4]; Rate 125 g al/ha): 70
IPOHE phytotoxicity rating ([4]; Rate 500 g al/ha): 90
CHEAL phytotoxicity rating ([5]; Rate 125 g al/ha): 100
CHEAL phytotoxicity rating ([5]; Rate 500 g al/ha): 100
DIGSA phytotoxicity rating ([6]; Rate 125 g al/ha): 80
DIGSA phytotoxicity rating ([6]; Rate 500 g al/ha): 100
AMARE phytotoxicity rating ([7]; Rate 125 g al/ha): 100
AMARE phytotoxicity rating ([7]; Rate 500 g al/ha): 100
CASOB phytotoxicity rating ([8]; Rate 125 g al/ha): 30
CASOB phytotoxicity rating ([8]; Rate 500 g al/ha): 80
ABUTH phytotoxicity rating ([9]; Rate 125 g al/ha): 100
ABUTH phytotoxicity rating ([9]; Rate 500 g al/ha): 100
CORN crop damage rating ([10]; Rate 125 g al/ha): 20
CORN crop damage rating ([10]; Rate 500 g al/ha): 40
RICE crop damage rating ([11]; Rate 125 g al/ha): 40
RICE crop damage rating ([11]; Rate 500 g al/ha): 90
SOY crop damage rating ([12]; Rate 125 g al/ha): 50
SOY crop damage rating ([12]; Rate 500 g al/ha): 80
phytotoxicity rating SORHA ([13]; rate 63 g ai/ha): 10
phytotoxicity rating SORHA ([13]; rate 500 g ai/ha): 70
phytotoxicity rating ECHCG ([14]; rate 63 g ai/ha): 10
phytotoxicity rating ECHCG ([14]; rate 500 g ai/ha): 0
phytotoxicity rating SETVI ([15]; rate 63 g ai/ha): 30
phytotoxicity rating SETVI ([15]; rate 500 g ai/ha): 80
phytotoxicity rating IPOHE ([16]; rate 63 g ai/ha): 100
phytotoxicity rating IPOHE ([16]; rate 500 g ai/ha): 100
phytotoxicity rating CHEAL ([17]; rate 63 g ai/ha): 100
phytotoxicity rating CHEAL ([17]; rate 500 g ai/ha): 100
phytotoxicity rating DIGSA ([18]; rate 63 g ai/ha): 0
phytotoxicity rating DIGSA ([18]; rate 500 g ai/ha): 60
phytotoxicity rating AMARE ([19]; rate 63 g ai/ha): 100
phytotoxicity rating AMARE ([19]; rate 500 g ai/ha): 100
phytotoxicity rating CASOB ([20]; rate 63 g ai/ha): 50
phytotoxicity rating CASOB ([20]; rate 500 g ai/ha): 100
phytotoxicity rating ABUTH ([21]; rate 63 g ai/ha): 95
phytotoxicity rating ABUTH ([21]; rate 500 g ai/ha): 100
crop damage rating CORN ([22]; rate 63 g ai/ha): 15
crop damage rating CORN ([22]; rate 500 g ai/ha): 35
crop damage rating RICE ([23]; rate 63 g ai/ha): 5
crop damage rating RICE ([23]; rate 500 g ai/ha): 35
crop damage rating SOY ([24]; rate 63 g ai/ha): 60
crop damage rating SOY ([24]; rate 500 g ai/ha): 80
